Reference: patent publication US4435570A, “5-(Phenyl or benzyl amino)methyl-pyrrolo[2,3-d]pyrimidin-4-one” (Takeda Chemical Industries, Ltd., priority 1981, dated 1984)
In brackets after ≈: the same amount, converted by molar mass.

Tests used:
[1] = tested on: L5178Y cells (tumor cells); test: Inhibitory effect upon the multiplication of tumor cells; assay type: cell-based; settings: RPMI 1640 medium+10% fetal calf serum, 48 hours, 37° C.; for IC50: Mus musculus, read-out: ED50 (concentration giving a cell count of 50% of control)
Procedure: The inhibitory effect of compound (I) upon the multiplication of cells was detected using L5178Y cells (tumor cells) in RPMI 1640 medium+10% fetal calf serum for 48 hours at 37° C.
The result was expressed in the concentration of the drug giving a cell count of 50% (ED50) with the average number of cells for the control (not modicated) group on the 2nd day being taken as 100%.

[2] = tested on: rat liver tRNA-guanine transglycosidase; test: Intake of compound into tRNA (tRNA-guanine transglycosidase, [3H]guanine-labeled tRNA); assay type: biochemical; settings: 0.02 OD260 of compound, 0.5 unit enzyme, 100 μl, 37° C., 17 hrs
Procedure: Intake of the compound of Example 1 into tRNA [^3 H]guanine-labeled tRNA* (8000 cpm), 70 mM Trishydrochloride, 60 mM magnesium chloride, 0.5 unit of rat liver tRNA-guanine transglycosidase and 0.02 OD260 of the compound of Example 1 were adjusted to 100 μl and reacted at 37° C. for 17 hrs. The reaction mixture was absorbed into a strip of Whatman 3 MM filter paper and washed three times with a 5% aqueous solution of trichloroacetic acid, once each with ethanol-ether (1:1) and ether. After drying, the paper strip was scanned with a toluenic scintillant.
* tRNA labeled with [^3 H] guanine in the first letter of its anticodon.
The 0.02 OD260 equivalent of the compound of Example 3 was adjusted to 100 μl and subjected to the same procedure as Experimental Example 1.

[3] = tested on: tRNA in the tumor cells (S-180 cancer-bearing mice); test: Intake of the radioactive compound into a tumor tissue (tRNA of tumor cells of S-180 cancer-bearing mice); assay type: in vivo; settings: 100 mg (0.17 mCi)/kg, tail vein once, 24 hours after administration, S-180 i.p. ddN mice
Procedure: Intake of the radioactive compound of Example 2 into a tumor tissue
Using S-180 cancer-bearing mice (ddN mice, 10^7 tumor cells/mouse as transplanted i.p.), 100 mg (0.17 mCi)/kg of the radioactive compound of Example 2 was administered into the tail vein once. Twenty-four hours after administration, the animal was sacrificed and the tumor cells were taken out and the rate of takeup of the radioactive compound into tRNA in the tumor cells was determined. […] [Experimental method: N. Okada et al., Biochem., 19, 395 (1980)]

IC50 [1]	taken into tRNA [2]	Structure (SMILES)	rate of takeup of the radioactive compound into tRNA in the tumor cells (tRNA substituted) [3]	ED50 (concentration giving a cell count of 50% of control) [1]
20 µg/mL (≈ 36.4 µM)	59%	N=C(NCc1c[nH]c2nc(N)[nH]c(=O)c12)c1cc(I)c(O)c(I)c1 [Example 1, 2-amino-5-[α-(3,5-diiodo-4-hydroxy)phenyliminomethylamino]methylpyrrolo[2,3-d]pyrimidin-4-one]	–	–
–	–	N=C(NCc1c[nH]c2nc(N)[nH]c(=O)c12)c1cc(I)c(O)c(I)c1 [Example 2, radioactive 2-amino-5-[α-(3,5-diiodo-4-hydroxy)phenyliminomethylamino]methylpyrrolo[2,3-d]pyrimidin-4-one]	~100%	–
35 µg/mL (≈ 88.6 µM)	93%	Nc1nc2[nH]cc(CNCc3ccc(I)cc3)c2c(=O)[nH]1 [Example 3, 2-amino-5-(p-iodobenzyl)aminomethylpyrrolo[2,3-d]pyrimidin-4-one]	–	–
–	–	Nc1nc2[nH]cc(CN[C@H]3C=C[C@H](O)[C@@H]3O)c2c(=O)[nH]1 [Q base, reference compound]	–	> 200 µg/mL
